Results reported in patent publication US6369090B1, “Fungicidal mixture” (BASF Aktiengesellschaft, priority 1997, dated 2002).

Tests used:
Puccinia recondita = experiment: Curative action against Puccinia recondita on wheat (brown rust of wheat); format: in vivo; settings: single active ingredient, 7 days
Description: The active ingredients, separately or together, were formulated as a 10% emulsion in a mixture of 63% by weight of cyclohexanone and 27% by weight of emulsifier, and diluted with water to the desired concentration.
The expected efficacies of the mixtures of the active ingredients were determined using Colby's formula [R. S. Colby, Weeds 15, 20-22 (1967)] and compared with the observed efficacies.
Colby's formula: E=x+y−x·y/100
E expected efficacy, expressed in % of the untreated control, when using the mixture, disclosed in DE Appl. 19617232.2, of the active ingredients I and II (=active ingredient mixture A) and the active ingredients III at the concentrations a and c […]
x efficacy, expressed in % of the untreated control, when using a mixture, disclosed in DE Appl. 19617232.2, of the active ingredients I and II at a concentration of a y efficacy, expressed in % of the untreated control, when using active ingredient III at a concentration of c Curative action against Puccinia recondita on wheat (brown rust of wheat) Leaves of wheat seedlings cv. “Frühgold” which had been grown in pots were dusted with spores of brown rust (Puccinia recondita). The pots were then kept for 24 hours in a chamber of high atmospheric humidity (90 to 95%) at 20 to 22° C. During this time, the spores germinated and the germinal tubes penetrated into the leaf tissue. The next day, the infected plants were sprayed to runoff point with an aqueous preparation of active ingredient which had been prepared from a stock solution comprising 10% of active ingredient, 63% of cyclohexanone and 27% of emulsifier. After the spray coating had dried on, the test plants were cultivated in a greenhouse at temperatures from 20 to 22° C. and at 65 to 70% relative atmospheric humidity for 7 days. The extent of the rust fungus development on the leaves was then determined.
(§1) The visually determined values for the percentage of infected leaf area were converted into efficacies as percent of the untreated control. Efficacy 0 means the same disease level as in the untreated control, efficacy 100 means 0% disease. The expected efficacies for active ingredient combinations were determined using Colby's formula (Colby, S. R. “Calculating synergistic and antagonistic responses of herbicide combinations”, Weeds, 15, p. 20-22, 1967) and compared with the observed efficacies.

[1] = system: Erysiphe graminis forma specialis tritici; experiment: Activity against powdery mildew of wheat (protective, wheat seedlings cv. Frühgold); format: in vivo; settings: single active ingredient, 7 days
Excerpt: The active ingredients, separately or together, were formulated as a 10% emulsion in a mixture of 63% by weight of cyclohexanone and 27% by weight of emulsifier, and diluted with water to the desired concentration. […]
Activity against powdery mildew of wheat
Leaves of wheat seedlings cv. “Frühgold” which had been grown in pots were sprayed to runoff point with an aqueous preparation of active ingredient which had been prepared from a stock solution comprising 10% of active ingredient, 63% of cyclohexanone and 27% of emulsifier and, 24 hours after the spraycoating had dried on, dusted with spores of powdery mildew of wheat (Erysiphe graminis forma specialis tritici). The test plants were subsequently placed in a greenhouse at from 20 to 24° C. and a relative atmospheric humidity of 60 to 90%. After 7 days, the extent of mildew development was determined visually as percent infection of the total leaf area.
as §1

SMILES | Efficacy in % of the untreated control (Puccinia recondita; 0.31 ppm in the spray liquor) [%] | Efficacy in % of the untreated control ([1]; 0.31 ppm in the spray liquor) [%] | Efficacy in % of the untreated control ([1]; 1.25 ppm in the spray liquor) [%] | Efficacy in % of the untreated control (Puccinia recondita; 1.25 ppm in the spray liquor) [%]
Fc1ccc([C@]2(Cn3cncn3)O[C@@H]2c2ccccc2Cl)cc1 (racemic) [III.8, (2RS, 3RS)-1-[3-(2-chlorophenyl)-2,3-epoxy-2-(4-fluorophenyl)propyl]-1H-1,2,4-triazole] | 0 |  |  | 
CCCN(CCOc1c(Cl)cc(Cl)cc1Cl)C(=O)n1ccnc1 [III.23, N-propyl-N-[(2,4,6-trichlorophenoxy)ethyl]imidazole-1-carboxamide] | 0 | 0 | 0 | 0
C[Si](Cn1cncn1)(c1ccc(F)cc1)c1ccc(F)cc1 [III.12, bis-(4-fluorophenyl)(methyl)-(1H-1,2,4-triazol-1-ylmethyl)silane] | 0 |  |  | 0
CCCC1COC(Cn2cncn2)(c2ccc(Cl)cc2Cl)O1 (racemic) [III.24, (±)-1-{[2-(2,4-dichlorophenyl)-4-propyl-1,3-dioxolan-2-yl]methyl}-1H-1,2,4-triazole] | 0 | 8 | 8 | 0
CC(C)(C)C(O)(CCc1ccc(Cl)cc1)n1cncn1 (stereo not drawn) [III.27, 1-(4-chlorophenyl)-4,4-dimethyl-3-(1H-1,2,4-triazol-1yl)pentan-3-ol] | 0 | 8 | 39 | 0
